Measurements: article PMC11096368, “Transcriptomic signature, bioactivity and safety of a non-hepatotoxic analgesic generating AM404 in the midbrain PAG region” (Scientific Reports, 2024)
Entries after “also recorded” stand apart in the source; their conditions may differ. Where two headings read alike, the source gives them in different places.

How the values were obtained:
Assay type in all cases: in vivo
Sprague–Dawley rats = experiment: CFA-induced inflammatory pain / Hargreaves thermal sensitivity assay; conditions: high dose (100 mg/kg)
Description: In these same cohorts of animals, we simultaneously measured their thermal nociception to hyperalgesia with the Hargreaves test using the plantar test apparatus (Ugo Basile 37,570). In this experimental setup, the rodents are placed in plastic cages on top of a glass surface, and their hind paws are subjected to an infrared heat stimulus. One hind paw at a time is stimulated with the light source (noxious stimuli) until the animal retracts the paw from the glass surface because of the stimulus. Baseline withdrawal thresholds (latency) of both the right and left paws were recorded, and animals were assigned to different treatment groups so that each group had approximately equal withdrawal threshold averages in both paws. After baseline testing, treated animals received subcutaneous plantar injection (150 μl) of 50% CFA into the left hind paw, while control animals received a plantar injection (150 µl) of 0.9% NaCl into their left hind paw. CFA induces inflammation, resulting in a left hind paw that is hypersensitive to the thermal stimulus, while the right hind paw serves as a within-subject baseline for each animal. To obtain Hargreaves withdrawal latency recordings, each animal was placed in an individual plastic observation compartment on a glass platform, which provided access to the plantar surface of the hind paws from underneath. After acclimation to the environment for 30 min, thermal hypersensitivity was assessed by stimulating the mid-plantar area of each hind paw with a bright light source attached to the meter (Ugo Basile 37,570) until animals withdrew the paw from the surface. The withdrawal threshold was defined as the average time (s) required for the rat to withdraw the stimulated paw. A brisk withdrawal of the paw (often followed by a sustained retraction and/or licking) was considered a positive response, but paw withdrawals due to locomotion or weight shifting were not counted. The Hargreaves studies were conducted with the plantar stimulation device that automatically registers the time (s) necessary to elicit paw withdrawal in order to eliminate bias in determining paw withdrawal thresholds. A cutoff of 20 s is pre-programmed so that the light source shuts off at that maximal period so as to not induce any burns on the plantar surface of the rodents. The Hargreaves test permits measurement of ipsilateral and contralateral heat thresholds, allowing each animal to serve as its own internal control in unilateral pain models. In addition, the Hargreaves test enables quantification of heat thresholds in unrestrained animals, reducing the likelihood of stress-induced responses.

[1] = LC–MS/MS identification of serum NAPQI; conditions: 600 mg/kg, CD-1 mice
Procedure: […] (NAPQI) was extracted from the serum by adding 3 volumes of ethyl-acetate to 1 volume of serum and storing them on ice for 30 min, followed by centrifugation at 3000g for 30 min. Afterward, the supernatant was transferred into mass spectrometry vials and dried under N2 gas. The serum was then washed with another 3 volumes of ethyl-acetate, and the supernatant was added back to the same mass spectrometry vial, followed by evaporation under a stream of N2 gas. The sample was re-suspended with 50 µl of 1:1 MeOH:H2O for LC–MS/MS experimentation. The mass spectrophotometer was operated in multiple reaction monitoring (MRM) mode using positive ion electrospray. NAPQI was detected by monitoring the m/z transition 150.3 → 108.1. Pure NAPQI analytical standard (10 ng/mL) obtained from Cayman Chemical (Ann Arbor, MI) was used to characterize the full fragmentation pattern of NAPQI and determine the likely fragments.

CD-1 male mice = experiment: LPS fever induction antipyresis assay; conditions: 75 mg/kg PO, LPS 100 μg/kg ip, n = 20
Procedure: Antipyresis experiments were carried out with n = 60 CD-1 male mice weighing between 45 and 50 g. All mice were kept in a 12-h day/12-h night cycle with free access to food and water ad libitum. After habituating and acclimating the mice for a week, each mouse was briefly anesthetized for 1 min with 1% isoflurane and implanted subcutaneously a transmitter probe that records core body temperature – Implantable Programmable Temperature Transponder (IPTT-300) by Bio Medic Data Systems (BMDS), DE, USA. The mice were allowed to recover for at least one week from the surgery before any recordings were made and observed in their home cages prior to pyrogen challenge for inducing fever. Temperatures were recorded using the BMDS DAS-8027-IUS data reading system.
All mice were fasted overnight (15 h) with free access to water ad libitum prior to the pyrogen challenge. For the induction of fever, LPS from E. coli (100 μg/kg, 0111:B4) (MilliporeSigma, Billerica, MA, USA) was used. Mice received either LPS in 0.9% saline (sterile) (vehicle) or just 0.9% saline as an intraperitoneal (ip) injection.
All drugs and vehicle (10% DMSO: 10% labrasol :80% PEG400) were administered by oral gavage, PO dosing. Each dosing volume was ~ 0.3–0.4 mL per mouse. […] We chose this dose to record antipyretic effect in a low dose that doesn’t cause hypothermia in mice.

CD1 or C57BL/6 mice = experiment: Acetic acid-induced abdominal writhing assay (visceral pain); conditions: for ED50: Mus musculus, equimolar dosing; for Analgesia in acetic acid-induced writhing assay: high dose (100 mg/kg), all experimental cohorts
Description: The investigators were blinded till the completion of all the experiments. To ensure objectivity, investigators were blinded for the acetic acid and tail flick experiments. In the CFA/von Frey and Hargreaves assays, one investigator did the drug pre-treatments, and another investigator at another location who was not aware of the treatments conducted the behavioral testing. Moreover, these studies used the eVF device that electronically registers the grams of force necessary to elicit paw withdrawal, eliminating bias that confounded older versions of this test in which an investigator used a series of individual von Frey microfilaments to determine paw withdrawal thresholds. Six separate experimenters were involved in the data acquisition for behavioral testing, and another separate investigator performed all the statistical analyses using GraphPad Prism Version 9.1.2. Statistical significance was determined by p < 0.05; one-way ANOVA followed by Sidak’s multiple comparisons post hoc test. Mixed-gender experiments were powered to test for gender effects, and different ages of rodents were also included for the experiments – young (2 months) and aged (20 months) to tease out whether there are any effects of age-related changes in nociceptive sensitivity under naïve, and inflammatory pre-clinical rodent pain models. For the aged rats and mice, we could only obtain male Sprague–Dawley rats and male C57BL/6 mice of 20 months old from all commercial animal vendors and from the National Institute of Aging (NIA). So, only these rodents were used for the older animal experimental cohort. Old female rats and mice were not available at the time when these experiments were conducted. For ED50 calculation, dose–response curves were calculated with regression analysis and log transformation using GraphPad Prism 9.1.2.
In this model of visceral pain, abdominal contraction (writhing), in which contraction of the abdominal muscles and stretching of the hind limbs is induced in mice in response to an ip injection of 0.4% acetic acid at a dose of 10 mL/kg 25 min after drug administration, is assessed. Specifically, the number of writhes is counted for 10 min, beginning 5 min after acetic acid injection. […] CD1 (young male and female) or C57BL/6 (aged male) mice were used. For the abdominal writhing assays, we used n = 35 aged male mice, n = 70 young male mice, and n = 70 young female mice.

[2] = young male and young female rats
[3] = read-out: ED50 Acetic acid writhing Assay (Mice), Aged (Male)
[4] = read-out: ED50 Acetic acid writhing Assay (Mice), Young (Female)
[5] = read-out: ED50 Acetic acid writhing Assay (Mice), Young (Male)

Row | SMILES | Analgesia in Hargreaves assay (paw withdrawal latencies) (Sprague–Dawley rats; aged male rats) | Analgesia in Hargreaves assay (paw withdrawal latencies) (Sprague–Dawley rats; [2]) | Formation of the hepatotoxic metabolite NAPQI (serum) [1] | Antipyresis, LPS fever (CD-1 male mice) | ED50 (CD1 or C57BL/6 mice; [3]) [µmol/kg] | ED50 (CD1 or C57BL/6 mice; [4]) [µmol/kg] | ED50 (CD1 or C57BL/6 mice; [5]) [µmol/kg] | Analgesia in acetic acid-induced writhing assay (CD1 or C57BL/6 mice)
1 | CC(=O)Nc1ccc(O)cc1 [ApAP, acetaminophen, reference compound] | significant analgesia | significant analgesia | a NAPQI peak is seen; also recorded: significantly enhanced; also recorded: NAPQI peak appears | comparable antipyresis | 71.6 | 661 | 75.8 | significant analgesia
2 | CCN(CC)C(=O)c1ccccc1S(=O)(=O)NCC(=O)Nc1ccc(O)cc1 [SRP-001, N,N-diethyl-2-[[2-(4-hydroxyanilino)-2-oxo-ethyl]sulfamoyl]benzamide] | significant analgesia | significant analgesia | lack of formation of the toxic quinonimine metabolite NAPQI; also recorded: does not produce the hepatotoxic metabolite; also recorded: lack of production of NAPQI | comparable antipyresis | 22.1 | 237 | 31.1 | significant analgesia
